Results from publication PMC11139994, “Inflammation causes insulin resistance in mice via interferon regulatory factor 3 (IRF3)-mediated reduction in FAHFA levels” (Nature Communications, 2024).

Experiments:
[1] = biological target: T1, AIG1 (androgen induced gene 1) (Mus musculus, UniProt Q9D8B1); experiment: competitive gel-based ABPP (FP-Rh) in mouse brain membrane proteome; also MS-based ABPP and in vivo target engagement; format: biochemical
T1 construct: endogenous AIG1 in mouse brain membrane proteome
T1 sequence (Q9D8B1 1-238): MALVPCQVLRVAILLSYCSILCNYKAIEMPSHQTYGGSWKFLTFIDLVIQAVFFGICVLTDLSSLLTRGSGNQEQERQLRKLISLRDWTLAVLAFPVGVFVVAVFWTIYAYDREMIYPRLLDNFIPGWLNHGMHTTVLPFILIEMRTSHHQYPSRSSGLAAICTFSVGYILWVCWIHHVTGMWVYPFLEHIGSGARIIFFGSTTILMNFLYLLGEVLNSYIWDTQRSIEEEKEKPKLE

[2] = biological target: T2, ABHD6 (Mus musculus, UniProt Q8R2Y0); experiment: competitive MS-based ABPP-ReDiMe (FP-biotin) in mouse brain proteome (off-target); format: cell-based
T2 construct: endogenous ABHD6 in mouse brain proteome
T2 sequence (Q8R2Y0 1-336): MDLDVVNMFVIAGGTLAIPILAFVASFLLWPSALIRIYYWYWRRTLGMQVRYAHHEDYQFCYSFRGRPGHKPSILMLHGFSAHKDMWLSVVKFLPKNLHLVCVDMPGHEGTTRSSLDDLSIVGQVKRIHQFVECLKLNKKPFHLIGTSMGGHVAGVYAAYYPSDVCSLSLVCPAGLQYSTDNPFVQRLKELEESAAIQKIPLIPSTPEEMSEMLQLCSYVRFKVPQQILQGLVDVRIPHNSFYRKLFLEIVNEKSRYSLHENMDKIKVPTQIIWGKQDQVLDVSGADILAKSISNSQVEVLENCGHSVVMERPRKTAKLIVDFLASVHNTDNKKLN

IC50 [1]: 1.6 nM
Compound: CN(c1ccn(C(=O)N2CCc3ccc(Oc4ccccc4)cc3C2)n1)S(C)(=O)=O [ABD-110, N-methyl-N-(1-(7-phenoxy-1,2,3,4-tetrahydroisoquinoline-2-carbonyl)-1H-pyrazol-3-yl)methanesulfonamide]
competitive MS-based ABPP-ReDiMe (FP-biotin) in mouse brain proteome (off-target) [2]: with only a few off-targets detected, including ABHD6 and several highly homologous, mouse-specific carboxylesterases (CESs)
